Literature values as cited in patent US20130190388A1, “Methods and Compositions Related to DLK-1 and the P38 MAPK Pathway in Nerve Regeneration” (University of Utah Research Foundation, priority 2008, published 2013).

Key:
[1] = test system: Magellan (Phr-1) growth cone phenotype; settings: Phr-1 (Magellan) mutant neurons
adult DRG neurons = settings: inhibiting p38 signaling; reduced from about 65% without inhibitor

CC(=O)O[C@H]1C(=O)[C@@]2(C)[C@H]([C@H](OC(=O)c3ccccc3)[C@]3(O)C[C@H](OC(=O)[C@H](O)[C@@H](NC(=O)c4ccccc4)c4ccccc4)C(C)=C1C3(C)C)[C@]1(OC(C)=O)CO[C@@H]1C[C@@H]2O [Taxol]
growth cone phenotype (expanded region of disorganized microtubules) [1]: rescued

C[S+]([O-])c1ccc(-c2nc(-c3ccncc3)c(-c3ccc(F)cc3)[nH]2)cc1 (centres unmarked) [SB203580]
regeneration in vitro by adult DRG neurons (adult DRG neurons): 10%
